Results reported in patent US20230150924A1, “NOVEL COMPOUND HAVING CANCER METASTASIS INHIBITORY ACTIVITY, PREPARATION METHOD THEREFOR, AND PHARMACEUTICAL COMPOSITION FOR INHIBITING CANCER METASTASIS AND INVASION OR TREATING COLORECTAL CANCER, COMPRISING COMPOUND” (CELLGENTEK CO., LTD., priority 2019, published 2023).
Where two headings read alike, the source gives them in different places.

Legend:
[1] = tested on: KAI1 promoter; assay: KAI1 promoter luciferase reporter assay in transfected Caco2 cells; type: cell-based, human; details: for fold induction at 1 µM: Homo sapiens, Caco-2, 16 h, read-out: Relative KAI promoter activity
[2] = tested on: invasion of colorectal cancer cells; assay: In vivo relative invation (invasion; EV and KITENIN controls, no method described); details: relative to EV (=1); KIT = KITENIN
[3] = 1 μM compound, 16 hours, transfected Caco2 cells, luciferase activity relative to DMSO control (=1)

SMILES | fold induction at 1 µM [1, 3] | In vivo relative invation [2] | fold induction at 1 µM [1] | Relative KAI promoter activity [1, 3]
O=C(CNC(=O)c1cccc(CN2CCN(c3ncccn3)CC2)c1)c1ccccc1 [Example 235, N-(2-oxo-2-phenylethyl)-3-((4-(pyrimidin-2-yl)piperazin-1-yl)methyl)benzamide] | 1.44 | 1.133 |  | 
COc1cc(OC)cc(C(=O)NCC(=O)c2ccc(N(C)C)cc2)c1 [Example 121, N-(2-(4-(dimethylamino)phenyl)-2-oxoethyl)-3,5imethoxybenzamide] | 0.96 | 1.203 |  | 
O=C(CNC(=O)c1ccccc1OC(F)(F)F)c1ccccc1 [Example 41, N-(2-oxo-2-phenylethyl)-2-(trifluoromethoxy)benzamide] | 1.19 | 0.7565 |  | 
C/C=C/C(=O)N1CCC(Oc2ccccc2C(=O)NCC(=O)c2ccccc2)CC1 [Example 158, (E)-2-((1-(but-2-enoyl)piperidin-4-yl)oxy)-N-(2-oxo-2-phenylethyl)benzamide] | 1 | 1.171 |  | 
O=C(CNS(=O)(=O)Cc1ccccc1)c1ccc(N2CCOCC2)cc1 [Example 149, N-(2-(4-morpholinophenyl)-2-oxoethyl)-1-phenylmethanesulfonamide] | 1.07 | 1.261 |  | 
CCCN(CCC)Cc1ccc(C(=O)NCC(=O)c2ccccc2)cc1 [Example 272, 4-((dipropylamino)methyl)-N-(2-oxo-2-phenylethyl)benzamide] | 1.59 | 1.23 |  | 
O=C(CNC(=O)c1cccc(C(F)(F)F)c1)c1ccc(Cl)cc1 [Example 74, N-(2-(4-chlorophenyl)-2-oxoethyl)-3-(trifluoromethyl)benzamide] | 0.78 | 1.17 |  | 
O=C(COc1ccccc1C(=O)NCC(=O)c1ccccc1)Nc1cccnc1 [Example 208, 2-(2-oxo-2-(pyridin-3-ylamino)ethoxy)-N-(2-oxo-2-phenylethyl)benzamide] | 1.14 | 1.184 |  | 
O=C(CNC(=O)c1ccc(F)c(F)c1)c1ccccc1 [Example 35, 3,4-difluoro-N-(2-oxo-2-phenylethyl)benzamide] | 1.28 | 0.8811 |  | 
CC(C)(C)OC(=O)N1CCN(Cc2cccc(C(=O)NCC(=O)c3ccccc3)c2)CC1 [Example 245, tert-butyl 4-(3-((2-oxo-2-phenylethyl)carbamoyl)benzyl) piperazine-1-carboxylate] | 1.35 | 1.126 |  | 
COCc1ccccc1C(=O)N1CCC(Oc2ccccc2C(=O)NCC(=O)c2ccccc2)CC1 [Example 169, 2-((1-(2-(methoxymethyl)benzoyl)piperidin-4-yl)oxy)-N-(2-oxo-2-phenylethyl)benzamide] | 0.99 | 1.186 |  | 
CCCNC(=O)COc1ccccc1C(=O)NCC(=O)c1ccccc1 [Example 228] | 0.982 | 1.278 |  | 
CN(C)c1ccc(C(=O)CNC(=O)c2cccs2)cc1 [Example 101, N-(2-(4-(dimethylamino)phenyl)-2-oxoethyl)thiophene-2-carboxamide] | 3.04 | 0.8815 |  | 
O=C(CNC(=O)c1ccccc1Cl)c1ccccc1 [Example 6, 2-chloro-N-(2-oxo-2-phenylethyl)benzamide] |  | 1.144 | 1.91 | 
O=C(CNC(=O)c1ccccc1OC1CCN(C(=O)c2cccc([N+](=O)[O-])c2)CC1)c1ccccc1 [Example 195, 2-((1-(3-nitrobenzoyl)piperidin-4-yl)oxy)-N-(2-oxo-2-phenylethyl)benzamide] | 1.08 | 1.139 |  | 
O=C(CNC(=O)c1ccccc1OC1CCN(C(=O)c2cccc(OC(F)(F)F)c2)CC1)c1ccccc1 [Example 200, N-(2-oxo-2-phenylethyl)-2-((1-(3-(trifluoromethoxy)benzoyl)piperidin-4-yl)oxy)benzamide] | 1.01 | 1.074 |  | 
C=CC(=O)NCC(=O)c1ccccc1 [Example 10, N-(2-oxo-2-phenylethyl) acrylamide] | 1.08 | 0.9099 |  | 
Cc1ccccc1C(=O)NCC(=O)c1ccc(Cl)cc1 [Example 51, N-(2-(4-chlorophenyl)-2-oxoethyl)-2-methylbenzamide] | 1.81 | 1.513 |  | 
O=C(COc1ccccc1C(=O)NCC(=O)c1ccccc1)Nc1ccc(Oc2ccccc2)cc1 [Example 221, 2-(2-oxo-2-((4-phenoxyphenyl)amino)ethoxy)-N-(2-oxo-2-phenylethyl)benzamide] | 0.961 | 1.322 |  | 
COc1ccc(C(=O)NCC(=O)c2ccc(N(C)C)cc2)cc1 [Example 104, N-(2-(4-(dimethylamino)phenyl)-2-oxoethyl)-4-methoxybenzamide] |  | 1.115 |  | 1.78

SMILES | fold induction at 1 µM [1, 3] | In vivo relative invation [2] | fold induction at 1 µM [1] | Relative KAI promoter activity [1, 3]
Cc1cccc(C(=O)NCC(=O)c2ccc(Cl)cc2)c1 [Example 53, N-(2-(4-chlorophenyl)-2-oxoethyl)-3-methylbenzamide] | 2.02 | 0.9411 |  | 
O=C(CNC(=O)c1ccccc1OC1CCN(C(=O)c2cc(Cl)cc(Cl)c2)CC1)c1ccccc1 [Example 197, 2-((1-(3,5-dichlorobenzoyl)piperidin-4-yl)oxy)-N-(2-oxo-2-phenylethyl)benzamide] | 0.92 | 1.214 |  | 
CC(=O)N1CCC(Oc2ccccc2C(=O)NCC(=O)c2ccccc2)CC1 [Example 182, 2-((1-acetylpiperidin-4-yl)oxy)-N-(2-oxo-2-phenylethyl)benzamide] | 0.93 | 1.095 |  | 
O=C(CNC(=O)c1cccc(OC(F)(F)F)c1)c1ccccc1 [Example 39, N-(2-oxo-2-phenylethyl)-3-(trifluoromethoxy)benzamide] | 1.21 | 0.5984 |  | 
O=C(COc1ccccc1C(=O)NCC(=O)c1ccccc1)NC1CCCCC1 [Example 230, 2-(2-(cyclohexylamino)-2-oxoethoxy)-N-(2-oxo-2-phenylethyl)benzamide] | 1.08 | 1.267 |  | 
CCC(=O)NCC(=O)c1cccnc1 [Example 136, N-(2-oxo-2-(pyridin-3-yl)ethyl) propionamide] | 1.17 | 1.297 |  | 
Cc1ccccc1NC(=O)COc1ccccc1C(=O)NCC(=O)c1ccccc1 [Example 202, 2-(2-oxo-2-(o-toylamino)ethoxy)-N-(2-oxo-2-phenylethyl)benzamide] | 1.31 | 1.138 |  | 
O=C(CNS(=O)(=O)c1ccc(Cl)cc1)c1ccc(N2CCOCC2)cc1 [Example 147, 4-chloro-N-(2-(4-morpholinophenyl)-2-oxoethyl)benzenesulfonamide] | 1.1 | 0.9524 |  | 
COc1cc(C)ccc1NC(=O)COc1ccccc1C(=O)NCC(=O)c1ccccc1 [Example 206, 2-(2-((2-methoxy-4-methylphenyl)amino)-2-oxoethoxy)-N-(2-oxo-2-phenylethyl)benzamide] | 1.05 | 1.11 |  | 
Cc1ccccc1C(=O)NCC(=O)c1cccnc1 [Example 135, 2-methyl-N-(2-oxo-2-(pyridin-3-yl)ethyl)benzamide] | 1.3 | 1.485 |  | 
O=C(CNS(=O)(=O)c1ccc(F)cc1)c1ccc(Cl)cc1 [Example 67, N-(2-(4-chlorophenyl)-2-oxoethyl)-4-fluorobenzenesulfonamide] | 0.87 | 1.175 |  | 
CCCCCN(CCCCC)Cc1cccc(C(=O)NCC(=O)c2cccc(OC)c2)c1 [Example 291, 3-((dipentylamino)methyl)-N-(2-(3-methoxyphenyl)-2-oxoethyl)benzamide] | 1.62 | 1.126 |  | 
O=C(CNC(=O)c1ccc(Cl)cc1)c1ccc(Cl)cc1 [Example 87, 4-chloro-N-(2-(4-chlorophenyl)-2-oxoethyl)benzamide] | 0.91 | 1.218 |  | 
C#CN(C)Cc1ccc(C(=O)NCC(=O)c2ccccc2)cc1 [Example 275, 4-((ethynyl(methyl)amino)methyl)-N-(2-oxo-2-phenylethyl)benzamide] | 6.85 | 1.146 |  | 
O=C(CNS(=O)(=O)c1cccc([N+](=O)[O-])c1)c1ccc(Cl)cc1 [Example 63, N-(2-(4-chlorophenyl)-2-oxoethyl)-3-nitrobenzenesulfonamide] | 0.7 | 1.102 |  | 
O=C(COc1ccccc1C(=O)NCC(=O)c1ccccc1)Nc1cccc(O)c1 [Example 223, 2-(2-((3-hydroxyphenyl)amino)-2-oxoethoxy)-N-(2-oxo-2-phenylethyl)benzamide] | 1.1 | 1.195 |  | 
O=C(CNC(=O)c1ccc(C(F)(F)F)cc1)c1ccccc1 [Example 32, N-(2-oxo-2-phenylethyl)-4-(trifluoromethyl)benzamide] | 1.02 | 1.383 |  | 
O=C(CNC(=O)c1ccc(Cl)cc1)c1cccnc1 [Example 130, 4-chloro-N-(2-oxo-2-(pyridin-3-yl)ethyl)benzamide] | 1.32 | 0.9875 |  | 
Cc1cccc(C(=O)N2CCC(Oc3ccccc3C(=O)NCC(=O)c3ccccc3)CC2)c1 [Example 163, 2-((1-(3-methylbenzoyl)piperidin-4-yl)oxy)-N-(2-oxo-2-phenylethyl)benzamide] | 1.1 | 1.163 |  | 
